pIC50: −log10 of the molar value. Counter-ions that a name gives are not always drawn.
Columns and labels:
placental αvβ3 = target: T1, placental αvβ3 (Homo sapiens, UniProt P05106+P06756); test: Fibrinogen binding to immobilized αvβ3; settings: biotinylated-fibrinogen 10 nM, immobilized placental αvβ3; read-out: IC50 values for the fibrinogen binding assay αvβ3
T1 construct: purified active GP IIb-IIIa (Calbiochem) or olacental αvβ3 at 0.5 μg/ml; from tissue; host or cells: placenta
Protocol: (§1) Nonbound fibrinogen was removed by five washes with binding buffer. Avidin conjugated to alkaline phosphatase (Sigma), diluted in binding buffer, was added and incubated for two hours at 37° C. The plates were washed five times with binding buffer, and after addition of the substrate PNPP (Pierce), the enzyme activity was measured by the absorbance at 405 nm.

GP IIb-IIIa (αIIbβ3) = target: T2, GP IIb-IIIa (αIIbβ3) (Homo sapiens, UniProt P05106+P08514); test: Fibrinogen binding to immobilized GP IIb-IIIa (αIIbβ3); settings: biotinylated-fibrinogen 10 nM, immobilized GP IIb-IIIa; read-out: IC50 values for the fibrinogen binding assay αIIbβ3
T2 construct: purchased Calbiochem
Protocol: as §1

T1 sequence (P06756 31-889 limits assumed): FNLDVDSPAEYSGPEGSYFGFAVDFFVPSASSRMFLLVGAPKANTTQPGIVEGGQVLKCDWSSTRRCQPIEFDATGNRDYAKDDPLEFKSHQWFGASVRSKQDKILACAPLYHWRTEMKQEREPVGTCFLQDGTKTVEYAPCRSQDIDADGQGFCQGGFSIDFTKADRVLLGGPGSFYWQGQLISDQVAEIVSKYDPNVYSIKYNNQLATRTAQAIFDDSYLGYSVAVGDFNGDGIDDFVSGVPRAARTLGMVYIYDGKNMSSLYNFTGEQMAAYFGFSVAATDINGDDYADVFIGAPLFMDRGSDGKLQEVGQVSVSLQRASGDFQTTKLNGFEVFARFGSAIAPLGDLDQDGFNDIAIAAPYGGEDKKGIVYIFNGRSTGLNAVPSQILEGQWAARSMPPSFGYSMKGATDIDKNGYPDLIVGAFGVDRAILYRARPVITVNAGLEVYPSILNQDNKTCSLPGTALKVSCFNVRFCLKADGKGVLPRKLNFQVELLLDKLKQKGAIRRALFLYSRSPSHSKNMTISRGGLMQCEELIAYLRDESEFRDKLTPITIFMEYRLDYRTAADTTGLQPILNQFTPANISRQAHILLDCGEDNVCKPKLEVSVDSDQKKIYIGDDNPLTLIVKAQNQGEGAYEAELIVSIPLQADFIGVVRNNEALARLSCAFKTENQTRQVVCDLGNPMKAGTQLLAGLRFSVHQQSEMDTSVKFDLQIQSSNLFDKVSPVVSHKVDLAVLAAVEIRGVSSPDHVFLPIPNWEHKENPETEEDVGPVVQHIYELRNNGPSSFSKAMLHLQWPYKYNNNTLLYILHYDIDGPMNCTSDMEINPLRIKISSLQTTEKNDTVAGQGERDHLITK
T1 sequence (P06756 891-1048 partner limits assumed): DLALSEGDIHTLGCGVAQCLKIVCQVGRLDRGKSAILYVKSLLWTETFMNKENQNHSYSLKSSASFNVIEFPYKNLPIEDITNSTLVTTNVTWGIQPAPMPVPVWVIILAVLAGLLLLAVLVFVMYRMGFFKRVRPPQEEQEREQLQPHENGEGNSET
T1 sequence (P05106 27-788): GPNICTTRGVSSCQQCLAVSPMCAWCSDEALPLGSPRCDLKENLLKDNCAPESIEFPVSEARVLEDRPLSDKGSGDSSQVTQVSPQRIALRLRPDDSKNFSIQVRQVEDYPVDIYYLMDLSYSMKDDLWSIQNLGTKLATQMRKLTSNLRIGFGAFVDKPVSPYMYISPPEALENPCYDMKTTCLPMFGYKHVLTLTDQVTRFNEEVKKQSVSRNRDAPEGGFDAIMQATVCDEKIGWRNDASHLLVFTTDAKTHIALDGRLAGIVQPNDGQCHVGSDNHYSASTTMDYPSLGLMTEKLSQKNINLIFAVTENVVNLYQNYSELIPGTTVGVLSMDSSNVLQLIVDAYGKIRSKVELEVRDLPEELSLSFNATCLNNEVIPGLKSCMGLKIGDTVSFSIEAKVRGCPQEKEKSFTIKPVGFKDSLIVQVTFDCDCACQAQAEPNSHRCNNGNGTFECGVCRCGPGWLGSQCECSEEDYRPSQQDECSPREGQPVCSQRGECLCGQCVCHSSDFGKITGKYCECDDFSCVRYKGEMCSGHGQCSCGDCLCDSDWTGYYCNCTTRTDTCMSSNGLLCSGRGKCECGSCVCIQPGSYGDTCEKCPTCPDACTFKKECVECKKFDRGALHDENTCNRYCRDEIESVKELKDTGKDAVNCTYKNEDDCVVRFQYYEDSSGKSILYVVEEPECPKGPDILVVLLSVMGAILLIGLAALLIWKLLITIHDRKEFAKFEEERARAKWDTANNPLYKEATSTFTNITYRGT
T2 sequence (P08514 32-887 limits assumed): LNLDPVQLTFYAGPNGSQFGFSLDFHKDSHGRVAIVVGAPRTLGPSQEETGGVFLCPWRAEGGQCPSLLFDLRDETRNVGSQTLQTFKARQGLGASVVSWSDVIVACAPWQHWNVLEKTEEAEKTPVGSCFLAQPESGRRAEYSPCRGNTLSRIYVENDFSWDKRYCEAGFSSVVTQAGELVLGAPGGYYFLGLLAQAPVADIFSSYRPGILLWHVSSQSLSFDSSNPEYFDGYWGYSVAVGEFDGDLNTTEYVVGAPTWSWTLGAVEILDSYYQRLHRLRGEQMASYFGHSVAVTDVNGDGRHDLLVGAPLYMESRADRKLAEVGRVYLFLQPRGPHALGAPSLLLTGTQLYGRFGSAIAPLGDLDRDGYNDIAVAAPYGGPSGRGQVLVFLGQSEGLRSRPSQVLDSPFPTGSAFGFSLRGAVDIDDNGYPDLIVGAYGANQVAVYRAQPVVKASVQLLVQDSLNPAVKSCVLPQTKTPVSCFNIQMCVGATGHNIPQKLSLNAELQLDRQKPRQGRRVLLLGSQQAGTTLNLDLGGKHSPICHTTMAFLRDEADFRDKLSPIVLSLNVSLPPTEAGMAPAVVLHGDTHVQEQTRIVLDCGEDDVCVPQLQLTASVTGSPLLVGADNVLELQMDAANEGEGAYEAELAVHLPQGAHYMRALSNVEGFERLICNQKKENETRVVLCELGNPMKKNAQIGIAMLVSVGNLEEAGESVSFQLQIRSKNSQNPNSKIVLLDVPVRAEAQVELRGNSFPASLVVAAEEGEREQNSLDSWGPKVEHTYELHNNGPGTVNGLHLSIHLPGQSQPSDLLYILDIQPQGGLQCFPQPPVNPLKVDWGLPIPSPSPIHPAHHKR
T2 sequence (P08514 891-1039 partner limits assumed): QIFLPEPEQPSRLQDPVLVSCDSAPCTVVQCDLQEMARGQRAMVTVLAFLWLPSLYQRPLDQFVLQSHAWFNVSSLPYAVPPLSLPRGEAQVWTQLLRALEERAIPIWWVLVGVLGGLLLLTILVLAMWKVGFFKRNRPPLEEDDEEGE
T2 sequence (P05106 27-788): as the sequence (P05106 27-788) above

SMILES | pIC50 (placental αvβ3) | pIC50 (GP IIb-IIIa (αIIbβ3))
N=C(N)NCCCOc1ccc2ccc(NC(=O)NC(CC(=O)O)c3cccnc3)c(=O)n2c1 (racemic) [Compound VIII, (+/−)-3-{3-[7-(3-Guanidino-propoxy)-4-oxo-4H-quinolizin-3-yl]-ureido}-3-pyridin-3-yl-propionic Acid] | 5.92 | 5.46
O=C(O)CC(NC(=O)c1ccc2ccc(OCCCNC(=O)OCc3ccccc3)cn2c1=O)c1ccccc1 (racemic) [Compound XI, (+/−)-3-{[7-(3-Benzyloxycarbonylamino-propoxy)-4-oxo-4H-quinolizine-3-carbonyl]-amino}-3-phenyl-propionic Acid] | 4.70 | 4.70
N=C(N)NC1CCC(Nc2ccn3c(=O)c(C(=O)NC(CC(=O)O)c4ccccc4)ccc3c2)CC1 (racemic) [Compound XLI, (+/−)-3-{[8-(4-Guanidino-cyclohexylamino)-4-oxo-4H-quinolizine-3-carbonyl]-amino}-3-phenyl-propionic Acid Trifluoroacetic Acid Salt] | 4.77 | 6.64
N=C(N)NCc1ccc2cc(C(=O)NC(CC(=O)O)c3cc(Cl)cc(Cl)c3)cc(=O)n2c1 (racemic) [Compound XLII, (+/−)-3-(3,5-Dichlorophenyl)-3-((7-guanidinomethyl-4-oxo-4H-quinolizine-2-carbonyl)-amino]-propionic acid trifluoroacetic acid salt] | 5.40 | 4.64
N=C(N)NCc1ccc2cc(C(=O)NC(CC(=O)O)c3cccnc3)cc(=O)n2c1 (racemic) [Compound XLIII, (+/−)-3-[(7-guanidinomethyl-4-oxo-4H-quinolizine-2-carbonyl]-amino)-3-pyridin-3-yl-propionic acid bis-trifluoroacetic acid salt] | 6.14 | 4.83
CN(CCN(C)c1ccn2c(=O)c(C(=O)NC(CC(=O)O)c3ccccc3)ccc2c1)C(=N)N (racemic) [Compound XXXIX, (+/−)-3-[(8-{Methyl-[2-(N-methyl-guanidino)-ethyl]-amino}-4-oxo-4H-quinolizine-3-carbonyl)-amino]-3-phenyl-propionic Acid Trifluoroacetic Acid Salt] | 4.68 | 7.20
NCCNc1ccn2c(=O)c(C(=O)NC(CC(=O)O)c3ccccc3)ccc2c1 (racemic) [Compound XXXVI, (+/−)-3-{[8-(2-Amino-ethylamino)-4-oxo-4H-quinolizine-3-carbonyl]-amino}-3-phenyl-propionic Acid] | 4.72 | 5.00
N=C(N)SCCNc1ccn2c(=O)c(C(=O)NC(CC(=O)O)c3ccccc3)ccc2c1 (racemic) [Compound XXXVII, (+/−)-3-{[8-(2-Carbamimidoylsulfanyl-ethylamino)-4-oxo-4H-quinolizine-3-carbonyl]-amino}-3-phenyl-propionic Acid Trifluoroacetic Acid Salt] | 5.09 | 6.77
O=C(O)CC(NC(=O)c1ccc2cc(NCCSC(=S)Nc3cccnc3)ccn2c1=O)c1ccccc1 (racemic) [Compound XXXVIII, (+/−)-3-({4-Oxo-8-[2-(pyridin-3-ylthiocarbamoylsulfanyl)-ethylamino]4H-quinolizine-3-carbonyl}-amino)-3-phenyl-propionic acid trifluoroacetic acid salt] | 4.89 | 7.35
O=C(O)CC(NC(=O)c1ccc2ccc(OCCCNC(=O)NCc3ccccc3)cn2c1=O)c1ccccc1 (racemic) [Compound X] | 4.17 | 4.54
NCCCCCOc1ccc2ccc(C(=O)NC[C@H](NS(=O)(=O)c3ccccc3)C(=O)O)c(=O)n2c1 [Compound I, (S)-2-Benzenesulfonylamino-3-{[7-(5-aminopentyloxy)-4-oxo-4H-quinolizine-3-carbonyl]-amino}-propionic Acid TFA Salt] | 4.36 | 7.24
N=C(N)NCCCCCOc1ccc2ccc(C(=O)NC[C@H](NS(=O)(=O)c3ccccc3)C(=O)O)c(=O)n2c1 [Compound II, (S)-2-Benzenesulfonylamino-3-{[7-(5-guanidino-pentyloxy)-4-oxo-4H-quinolizine-3-carbonyl]-amino}-propionic Acid Hydrochloride] | 4.62 | 5.41
N=C(N)NCCCOc1ccc2ccc(NC(=O)NC[C@H](NS(=O)(=O)c3ccccc3)C(=O)O)c(=O)n2c1 [Compound IX, (S)-2-Benzenesulfonylamino-3-{3-[7-(3-guanidino-propoxy)-4-oxo-4H-quinolizin-3-yl]-ureido}-propionic Acid Trifluoroacetate Salt] | 5.89 | 8.02
O=C(NC[C@H](NS(=O)(=O)c1ccccc1)C(=O)O)Nc1ccc2ccc(OCCCNC(=O)OCc3ccccc3)cn2c1=O [Compound VI, (S)-2-Benzenesulfonylamino-3-{3-[7-(3-benzyloxycarbonylamino-propoxy)-4-oxo-4H-quinolizine-3-yl]-ureido}-propionic Acid] | < 4.00 | 5.74
NCCCOc1ccc2cc(C(=O)O)cc(=O)n2c1 [Compound XIII, 7-(3-Amino-propoxy)-4-oxo-4H-quinolizine-2-carboxylic Acid Trifluoroacetic Acid Salt] | < 4.00 | 5.28

Results, then the molecule that gave them:

pIC50 (placental αvβ3) | pIC50 (GP IIb-IIIa (αIIbβ3)) | SMILES
7.52 | 5.22 | N=C(N)NCc1ccc2cc(C(=O)NCC(Nc3ncccn3)C(=O)O)cc(=O)n2c1 (racemic) [Compound XLIV, (+/−)-3-[(7-guanidinomethyl-4-oxo-4H-quinolizine-2-carbonyl)-amino]-2-(pyrimidin-2-ylamino)-propionic acid bis-trifluoroacetic acid salt]
4.85 | 7.13 | NCCCOc1ccc2cc(C(=O)NC[C@H](Nc3ncccn3)C(=O)O)cc(=O)n2c1 (stereo in doubt) [Compound XXI, 3-{[7-(3-Amino-propoxy)-4-oxo-4H-quinolizine-2 carbonyl]-amino}-2-(pyrimidin-2-ylamino)-propionic Acid Hydrochloride]
7.72 | 6.36 | NCc1ccc2cc(C(=O)NC[C@H](NS(=O)(=O)c3ccccc3)C(=O)O)cc(=O)n2c1 (stereo in doubt) [Compound XXVI, 3-[(7-Aminomethyl-4-oxo-4H-quinolizine-2-carbonyl)-amino]-2-benzenesulfonylamino-propionic Acid Trifluoroacetic Acid Salt]
4.02 | 6.28 | NCCCOc1ccc2ccc(C(=O)NC[C@H](NS(=O)(=O)c3ccccc3)C(=O)O)c(=O)n2c1 [Compound III, (S)-3-{[7-(3-Amino-propoxy)-4-oxo-4H-quinolizine-3-carbonyl]-amino}-2-benzenesulfonylamino-propionic Acid Trifluoroacetic Acid Salt]
5.06 | 7.48 | N=C(N)NCCCOc1ccc2ccc(C(=O)NC[C@H](NS(=O)(=O)c3ccccc3)C(=O)O)c(=O)n2c1 [Compound IV, (S)-2-Benzenesulfonylamino-3-{[7-(3-guanidino-propoxy)-4-oxo-4H-quinolizine-3-carbonyl]-amino}-propionic Acid Hydrochloride]
4.04 | 8.74 | NCCCOc1ccc2ccc(NC(=O)NC[C@H](NS(=O)(=O)c3ccccc3)C(=O)O)c(=O)n2c1 [Compound VII, (S)-3-{3-[7-(3-Amino-propoxy)-4-oxo-4H-quinolizin-3-yl]-ureido}-2-Benzenesulfonylamino-propionic Acid]
5.96 | 6.10 | CNC(=O)NCCCOc1ccc2cc(C(=O)NC[C@H](NS(=O)(=O)c3ccccc3)C(=O)O)cc(=O)n2c1 [Compound XII, (S)-2-Benzenesulfonylamino-3-({7-[3-(3-methyl-ureido)-propoxy]-4-oxo-4H-quinolizine-2-carbonyl}-amino)-propionic Acid]
4.77 | 9.42 | NCCCOc1ccc2cc(C(=O)NC[C@H](NS(=O)(=O)c3ccccc3)C(=O)O)cc(=O)n2c1 [Compound XIV, (S)-3-{[7-(3-Amino-propoxy)-4-oxo-4H-quinolizine-2-carbonyl]-amino}-2-benzenesulfonylamino-propionic Acid Trifluoroacetic Acid Salt]
5.70 | 7.54 | NCCOc1ccc2cc(C(=O)NC[C@H](NS(=O)(=O)c3ccccc3)C(=O)O)cc(=O)n2c1 [Compound XIX, (S)-3-{[7-(2-Amino-ethoxy)-4-oxo-4H-quinolizine-2-carbonyl]-amino}-2-benzenesulfonylamino-propionic Acid Trifluoroacetic Acid Salt]
6.04 | 6.07 | O=C(NCc1ccc2cc(C(=O)NC[C@H](NS(=O)(=O)c3ccccc3)C(=O)O)cc(=O)n2c1)OCc1ccccc1 [Compound XLV, (S)-2-Benzenesulfonylamino-3-([(7-benzyloxycarbonylamino-methyl)-4-oxo-4H-quinolizine-2-carbonyl]-amino)-propionic acid]
6.54 | 5.46 | O=C(NC[C@H](NS(=O)(=O)c1ccccc1)C(=O)O)c1cc(=O)n2cc(CNc3ncccn3)ccc2c1 [Compound XLVI, (S)-2-Benzenesulfonylamino-3-([4-oxo-7-(pyrimidin-2-ylaminomethyl)-4H-quinolizine-2-carbonyl]-amino)-propionic acid trifluoroacetic acid salt]
8.22 | 5.31 | O=C(NCc1ccccc1)NCc1ccc2cc(C(=O)NC[C@H](NS(=O)(=O)c3ccccc3)C(=O)O)cc(=O)n2c1 [Compound XLVII, (S)-2-Benzenesulfonylamino-3-{[7-(3-benzyl-ureidomethyl)-4-oxo-4H-quinolizine-2-carbonyl]-amino}-propionic acid]

— patent US6630488B1, “Quinolizinones as integrin inhibitors” (Biochem Pharma, Inc., priority 1998, dated 2003)
